Non-standard residues stand in square brackets, D forms with d. Residues, ends and D or L forms follow the SMILES beside them.

One assay deals with growth hormone release. Kind of assay: In vivo growth hormone release study (serum GH by RIA about 15 minutes after intraperitoneal injection). Details: species or system rat. The note with it: 21 day old female rats, serum about 15 minutes after injection, mean of 8 ± SEM, control 4 ± 1. How it is done: Female rats of the CD-1 strain were housed in a constant temperature room at 24° C. with 14 hours light and 10 hours darkness. The rats were fed Purina brand rat chow ab libitum. All studies were started between 0800 and 1000 hours.
Each female rat (21 days old; eight rats per dosage level shown in Table XVI) was intraperitoneally injected with a desired dosage of the peptide of Example 1. Approximately 15 minutes after injection, the rat was guillotined. A blood sample was collected from the guillotined rat. The blood sample was centrifuged and a serum sample was collected therefrom. Each serum sample was assayed for GH, in duplicate, by a standard radioimmunoassay (RIA).

In the next assay the test system is pituitaries. Kind of assay: In vitro growth hormone release study (incubated rat pituitaries, GH by RIA). Format: cell-based. How it is done:
Female rats at the CD-1 strain were housed in a constant temperature room at 24° C. with 14 hours light and 10 hours darkness. The rats were fed Purina brand rat chow ab libitum. All studies were started between 0800 and 1000 hours.
Pituitaries were removed from 20 day old female rats. In each polytetrafluoroethylene beaker (10 ml) was incubated two pituitaries at 36° C. in 1 ml of lactated Ringer's solution in a Dubnoff Shaker (90 cycles/min.). All medium in each beaker was removed each hour (e.g., P1, P2, I3, I4, I5) and then fresh medium was added back to each beaker. Each medium removed was assayed for GH, in duplicate, by a standard radioimmunoassay (RIA).
The growth hormone agonist of Example 1 was not added to the incubation mediums employed during the first hour of the incubation period (P1) or to the incubation mediums employed during the second hour of the incubation period (P2). The growth hormone agonist of Example 1 was dissolved in dimethylsulfoxide (DMSO; 10:1, agonist:DMSO), added to each incubation medium employed during the third hour of the incubation period (I3), to each medium employed during the fourth hour of the incubation period (I4) and to each medium employed during the fifth hour of the incubation period (I5). The release of growth hormone was recorded as ΔGH and calculated by subtracting the amount of GH released at P2 from that released at I3, I4, and I5. The agonist activity was determined from the release at I3, I4, and I5.
The procedure set forth in Example 11 with one modification was employed in an in vitro growth hormone release study of the peptide of Example 6 and the results therefrom are set forth in Table XI. The sole modification was the deletion of I5 from the procedure of Example 11.
The procedure set forth in Example 11 with one modification was employed in an in vitro growth hormone release study of the peptide of Example 7 and the results therefrom are set forth in Table XII. The sole modification was the deletion of I5 from the procedure of Example 11.

The mark [1] stands for this setting: dosage 1 ng/ml incubation medium, mean of 9 assays (I3, I4, I5 minus P2) ± SEM.
The mark [2] stands for this setting: dosage 3 ng/ml incubation medium, mean of 9 assays (I3, I4, I5 minus P2) ± SEM.
Where [3] appears, read: dosage 10 ng/ml incubation medium, mean of 9 assays (I3, I4, I5 minus P2) ± SEM.
Setting [4] is: dosage 30 ng/ml incubation medium, mean of 9 assays (I3, I4, I5 minus P2) ± SEM.
[5] abbreviates: dosage 100 ng/ml incubation medium, mean of 9 assays (I3, I4, I5 minus P2) ± SEM.
Setting [6] is: dosage 1,000 ng/ml incubation medium, mean of 9 assays (I3, I4, I5 minus P2) ± SEM.

On to `C[C@H](NC(=O)[C@@H](Cc1c[nH]c2ccccc12)NC(=O)[C@@H](N)Cc1c[nH]cn1)C(=O)N[C@@H](Cc1c[nH]c2ccccc12)C(=O)N[C@H](Cc1ccccc1)C(N)=O` [Example 1, H2 -His-D-Trp-Ala-Trp-D-Phe-NH2] (H-H[dW]AW[dF]-NH2), for which the ΔGH in the assay on growth hormone release (dosage 0.1 (μg/ml serum)) stood at 1 ± 1 ng/mL; in the assay on growth hormone release (dosage 1.0 (μg/ml serum)), 2 ± 2 ng/mL; in the assay on growth hormone release (dosage 10.0 (μg/ml serum)), 2 ± 1 ng/mL; with growth hormone release (dosage 100.0 (μg/ml serum)), 82 ± 18 ng/mL; in the assay on pituitaries (setting [1]), 206 ng/mL; in the assay with pituitaries (setting [2]), 288 ng/mL. The ΔGH is 2,005 ng/ml with pituitaries (setting [3]) and 3,046 ng/ml in the assay with pituitaries (setting [4]).
In the case of `C[C@H](NC(=O)[C@@H](Cc1c[nH]c2ccccc12)NC(=O)[C@@H](N)Cc1ccc(O)cc1)C(=O)N[C@@H](Cc1c[nH]c2ccccc12)C(=O)N[C@H](Cc1c[nH]cn1)C(N)=O` [Example 2, H2 -Tyr-D-Trp-Ala-Trp-D-His-NH2] (H-Y[dW]AW[dH]-NH2), the ΔGH was -179 ng/mL with pituitaries (setting [1]), -192 ng/mL in the assay on pituitaries (setting [2]), -802 ng/mL with pituitaries (setting [3]) and 611 ng/mL with pituitaries (setting [4]).
Take `C[C@@H](NC(=O)[C@@H](Cc1c[nH]c2ccccc12)NC(=O)[C@@H](N)Cc1ccc(O)cc1)C(=O)N[C@@H](Cc1c[nH]c2ccccc12)C(=O)N[C@H](Cc1ccccc1)C(N)=O` [Example 6, H2 -Tyr-D-Trp-D-Ala-Trp-D-Phe-NH2] (H-Y[dW][dA]W[dF]-NH2): the ΔGH was determined as 648 ± 210 ng/mL in the assay on pituitaries (dosage 300 ng/ml incubation medium, I5 deleted, mean of 6 assays (I3, I4 minus P2) ± SEM); 435 ± 143 ng/mL with pituitaries (dosage 3,000 ng/ml incubation medium, I5 deleted, mean of 6 assays (I3, I4 minus P2) ± SEM); 1136 ± 190 ng/mL in the assay on pituitaries (dosage 30,000 ng/ml incubation medium, I5 deleted, mean of 6 assays (I3, I4 minus P2) ± SEM).
Take `C[C@H](NC(=O)[C@@H](Cc1c[nH]c2ccccc12)NC(=O)[C@@H](N)Cc1c[nH]cn1)C(=O)N[C@@H](Cc1c[nH]c2ccccc12)C(=O)N[C@H](Cc1ccc(O)cc1)C(N)=O` [Example 3, H2 -His-D-Trp-Ala-Trp-D-Tyr-NH2] (H-H[dW]AW[dY]-NH2): the ΔGH with pituitaries (setting [1]) is -126 ng/mL; in the assay on pituitaries (setting [3]) it was -99 ng/mL; with pituitaries (setting [5]) it was -238 ng/mL; in the assay with pituitaries (setting [6]) it was 2598 ng/mL.
On to `CC(=O)N[C@@H](Cc1ccc(O)cc1)C(=O)N[C@H](Cc1c[nH]c2ccccc12)C(=O)N[C@@H](C)C(=O)N[C@@H](Cc1c[nH]c2ccccc12)C(=O)N[C@H](Cc1ccccc1)C(N)=O` [Example 9, CH3 CO-Tyr-D-Trp-Ala-Trp-D-Phe-NH2] (Ac-Y[dW]AW[dF]-NH2), for which the ΔGH in the assay with pituitaries (setting [3]) was -297 ± 79 ng/mL; in the assay on pituitaries (setting [4]) it was -118 ± 97 ng/mL; in the assay on pituitaries (dosage 300 ng/ml incubation medium, mean of 9 assays (I3, I4, I5 minus P2) ± SEM), 5 ± 29 ng/mL; in the assay with pituitaries (dosage 3,000 ng/ml incubation medium, mean of 9 assays (I3, I4, I5 minus P2) ± SEM), 1594 ± 385 ng/mL; with pituitaries (dosage 30,000 ng/ml incubation medium, mean of 9 assays (I3, I4, I5 minus P2) ± SEM), 1607 ± 250 ng/mL.
On to `C[C@H](NC(=O)[C@@H](Cc1c[nH]c2ccccc12)NC(=O)[C@@H](N)Cc1c[nH]cn1)C(=O)N[C@@H](Cc1c[nH]c2ccccc12)C(=O)N[C@H](Cc1c[nH]cn1)C(N)=O` [Example 4, H2 -His-D-Trp-Ala-Trp-D-His-NH2] (H-H[dW]AW[dH]-NH2), for which the ΔGH in the assay with pituitaries (setting [1]) was -166 ng/mL; with pituitaries (setting [3]), -369 ng/mL; in the assay on pituitaries (setting [5]) it was 43 ng/mL; with pituitaries (setting [6]) it was 1501 ng/mL.

(Values after patent publication US4410513A, “Synthetic peptides having pituitary growth hormone releasing activity” (Beckman Instruments, Inc., priority 1981, dated 1983).)
